pIC50: −log10 of the molar value.
Tests used:
Assay type in all cases: biochemical
full-length human CSNK1D = molecular target: T1, full-length human CSNK1D (Homo sapiens, UniProt P48730); experiment: CSNK1D Assay (ADP-Glo, 1 μM ATP); conditions: Table 3, read-out: CSNK1D IC50 [mol/l] (median)
T1 construct: N-terminal Glutathion-S-Transferase (GST) and full-length human CSNK1D; purchased Life Technologies PV3665; host or cells: baculovirus infected insect cells
Experimental: CSNK1D-inhibitory activity of compounds of the present invention in presence of 1 μM adenosine-tri-phosphate (ATP) was quantified employing the CSNK1 D assay as described in the following paragraphs. In essence, the enzyme activity is measured by quantification of the adenosine-di-phosphate (ADP), which is generated as a co-product of the enzyme reaction, via the “ADP-Glo™ Kinase Assay” kit from the company Promega. This detection system works as follows: In a first step the ATP not consumed in the kinase reaction is quantitatively converted to cAMP employing an adenylate cyclase (“ADP-Glo-reagent”), then the adenylate cyclase is stopped and the ADP generated in the kinase reaction converted to ATP which generates in a luciferase-based reaction a glow-luminescence signal (“Kinase Detection Reagent”).
Recombinant fusion protein of N-terminal Glutathion-S-Transferase (GST) and full-length human CSNK1D, expressed by baculovirus infected insect cells and purified via Glutathion affinity chromatography, was purchased from Life Technologies (product no. PV3665) and used as enzyme. As substrate for the kinase reaction the biotinylated peptide Btn-Ahx-[…] (C-terminus in amide form) was used which can be purchased e.g. from the company Biosyntan (Berlin-Buch, Germany).
For the assay 50 nl of a 100 fold concentrated solution of the test compound in DMSO was pipetted into a white 1536-well microtiter plate (Greiner Bio-One, Frickenhausen, Germany), 2 μL of a solution of CSNK1D in aqueous assay buffer [50 mM HEPES pH 7.5, 10% (v/v) glycerol, 10 mM MgCl2, 50 mM NaCl, 1 mM dithiothreitol, 0.01% (w/v) bovine serum albumin, 0.01% (v/v) Triton X-100] were added and the mixture was incubated for 15 min at 22° C. to allow pre-binding of the test compounds to the enzyme before the start of the kinase reaction. […] The concentration of CSNK1D was adjusted depending of the activity of the enzyme lot and was chosen appropriate to have the assay in the linear range, a typical concentration is about 0.5 ng/μL. The reaction was stopped by the addition of 2.5 μL of “ADP-Glo-reagent” (1:1.5 fold diluted with water) and the resulting mixture was incubated at 22° C. for 1 h to convert the ATP not consumed in the kinase reaction completely […]. Subsequently 2.5 μL of the “kinase detection reagent” (1.2 fold more concentrated than recommended by the producer) were added, the resulting mixture was incubated at 22° C. for 1 h and then the luminescence measured with a suitable measurement instrument (e.g. Viewlux™ from Perkin-Elmer). The amount of emitted light was taken as a measure for the amount of ADP generated and thereby for the activity of the CSNK1D.

[1] = molecular target: T2, full-length human CSNK1A1 (Homo sapiens, UniProt P48729); experiment: CSNK1A1 High ATP Assay (ADP-Glo, 1 mM ATP); conditions: Table 3, read-out: CSNK1A1 high ATP assay IC50 [mol/l] (median);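 further: 30 min kinase reaction at 22 °C with 100 µM peptide substrate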
T2 construct: N-terminal Glutathion-S-Transferase (GST) and full-length human CSNK1A1; purchased Life Technologies PV4174; host or cells: baculovirus infected insect cells
T2 sequence (P48729 whole entry): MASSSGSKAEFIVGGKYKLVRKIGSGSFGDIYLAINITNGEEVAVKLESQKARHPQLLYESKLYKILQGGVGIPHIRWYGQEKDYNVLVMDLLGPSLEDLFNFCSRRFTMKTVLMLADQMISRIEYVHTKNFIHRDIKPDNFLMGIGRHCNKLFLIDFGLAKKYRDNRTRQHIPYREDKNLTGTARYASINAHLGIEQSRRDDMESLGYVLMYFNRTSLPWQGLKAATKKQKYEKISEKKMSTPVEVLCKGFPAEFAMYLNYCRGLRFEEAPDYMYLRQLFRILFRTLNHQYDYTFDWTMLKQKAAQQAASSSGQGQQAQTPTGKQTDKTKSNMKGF
Experimental: CSNK1A1-inhibitory activity of compounds of the present invention in presence of 1 mM adenosine-tri-phosphate (ATP) was quantified employing the CSNK1A1-high-ATP-assay as described in the following paragraphs. In essence, the enzyme activity is measured by quantification of the adenosine-di-phosphate (ADP), which is generated as a co-product of the enzyme reaction, via the “ADP-Glo™ Kinase Assay” kit from the company Promega. This detection system works as follows: In a first step the ATP not consumed in the kinase reaction is quantitatively converted to cAMP employing an adenylate cyclase (“ADP-Glo-reagent”), then the adenylate cyclase is stopped and the ADP generated in the kinase reaction converted to ATP which generates in a luciferase-based reaction a glow-luminescence signal (“Kinase Detection Reagent”).
(§1) Recombinant fusion protein of N-terminal Glutathion-S-Transferase (GST) and full-length human CSNK1A1, expressed by baculovirus infected insect cells and purified via Glutathion affinity chromatography, was purchased from Life Technologies (product no. PV4174) and used as enzyme. As substrate for the kinase reaction the biotinylated peptide biotin-Ahx-KRRRAL-pS-VASLPGL (C-terminus in amide form) was used which can be purchased e.g. from the company Biosyntan (Berlin-Buch, Germany).
For the assay 50 nl of a 100 fold concentrated solution of the test compound in DMSO was pipetted into a white low volume 384-well microtiter plate (Greiner Bio-One, Frickenhausen, Germany), 2 μL of a solution of CSNK1A1 in aqueous assay buffer [50 mM HEPES pH 7.5, 10% (v/v) glycerol, 10 mM MgCl2, 50 mM NaCl, 1 mM dithiothreitol, 0.01% (w/v) bovine serum albumin, 0.01% (v/v) Triton X-100] were added and the mixture was incubated for 15 min at 22° C. to allow pre-binding of the test compounds to the enzyme before the start of the kinase reaction. […] The concentration of CSNK1A1 was adjusted depending of the activity of the enzyme lot and was chosen appropriate to have the assay in the linear range, a typical concentration is about 0.4 ng/μL. The reaction was stopped by the addition of 2.5 μL of “ADP-Glo-reagent” (1:1.5 fold diluted with water) and the resulting mixture was incubated at 22° C. for 1 h to convert the ATP not consumed in the kinase reaction completely […]. Subsequently 2.5 μL of the “kinase detection reagent” (1.2 fold more concentrated than recommended by the producer) were added, the resulting mixture was incubated at 22° C. for 1 h and then the luminescence measured with a suitable measurement instrument (e.g. Viewlux™ from Perkin-Elmer). The amount of emitted light was taken as a measure for the amount of ADP generated and thereby for the activity of the CSNK1A1.

[2] = molecular target: T2, full-length human CSNK1A1; experiment: CSNK1A1 Assay 2 (ADP-Glo, 1 μM ATP, substrate biotin-Ahx-KRRRAL-pS-VASLPGL); conditions: Table 3, read-out: CSNK1A1 Assay 2 IC50 [mol/l] (median)
Experimental: CSNK1A1-inhibitory activity of compounds of the present invention in presence of 1 μM adenosine-tri-phosphate (ATP) was quantified employing the CSNK1A1 assay as described in the following paragraphs. In essence, the enzyme activity is measured by quantification of the adenosine-di-phosphate (ADP), which is generated as a co-product of the enzyme reaction, via the “ADP-Glo™ Kinase Assay” kit from the company Promega. This detection system works as follows: In a first step the ATP not consumed in the kinase reaction is quantitatively converted to cAMP employing an adenylate cyclase (“ADP-Glo-reagent”), then the adenylate cyclase is stopped and the ADP generated in the kinase reaction converted to ATP which generates in a luciferase-based reaction a glow-luminescence signal (“Kinase Detection Reagent”).
as §1
For the assay 50 nl of a 100 fold concentrated solution of the test compound in DMSO was pipetted into a white 1536-well microtiter plate (Greiner Bio-One, Frickenhausen, Germany), 2 μL of a solution of CSNK1A1 in aqueous assay buffer [50 mM HEPES pH 7.5, 10% (v/v) glycerol, 10 mM MgCl2, 50 mM NaCl, 1 mM dithiothreitol, 0.01% (w/v) bovine serum albumin, 0.01% (v/v) Triton X-100] were added and the mixture was incubated for 15 min at 22° C. to allow pre-binding of the test compounds to the enzyme before the start of the kinase reaction. […] The concentration of CSNK1A1 was adjusted depending of the activity of the enzyme lot and was chosen appropriate to have the assay in the linear range, a typical concentrations are about 0.0375 ng/μL. The reaction was stopped by the addition of 2.5 μL of “ADP-Glo-reagent” (1:1.5 fold diluted with water) and the resulting mixture was incubated at 22° C. for 1 h to convert the ATP not consumed in the kinase reaction completely […]. Subsequently 2.5 μL of the “kinase detection reagent” (1.2 fold more concentrated than recommended by the producer) were added, the resulting mixture was incubated at 22° C. for 1 h and then the luminescence measured with a suitable measurement instrument (e.g. Viewlux™ from Perkin-Elmer). The amount of emitted light was taken as a measure for the amount of ADP generated and thereby for the activity of the CSNK1A1.

T1 sequence (P48730 whole entry): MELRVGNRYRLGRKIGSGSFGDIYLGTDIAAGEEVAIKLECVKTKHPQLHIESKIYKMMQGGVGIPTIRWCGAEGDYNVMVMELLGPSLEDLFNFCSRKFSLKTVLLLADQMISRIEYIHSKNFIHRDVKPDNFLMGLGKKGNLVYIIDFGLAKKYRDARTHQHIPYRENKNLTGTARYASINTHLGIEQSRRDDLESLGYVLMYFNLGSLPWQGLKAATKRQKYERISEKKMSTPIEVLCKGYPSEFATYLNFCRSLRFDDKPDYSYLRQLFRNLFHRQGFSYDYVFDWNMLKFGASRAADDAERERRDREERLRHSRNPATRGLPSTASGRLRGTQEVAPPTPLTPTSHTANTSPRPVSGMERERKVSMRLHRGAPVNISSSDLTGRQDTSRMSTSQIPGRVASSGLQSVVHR

`O=C(Nc1cc(-c2[nH]c3c(OC4CC4)cc(F)nc3c2-c2ccccn2)ccn1)C(CC(F)F)c1ccc(F)cc1` (single isomer, unassigned) [Example 44, N-{4-[7-(cyclopropyloxy)-5-fluoro-3-(pyridin-2-yl)-1H-pyrrolo[3,2-b]pyridin-2-yl]pyridin-2-yl}-4,4-difluoro-2-(4-fluorophenyl)butanamide] showed a pIC50 (full-length human CSNK1D) of 8.27, a pIC50 [1] of 8.22 and a pIC50 [2] of 8.22.

`COCCOc1cc(F)nc2c(-c3ccccn3)c(-c3ccnc(NC(=O)C(CC(F)F)c4ccc(F)cc4)c3)[nH]c12` (single isomer, unassigned) [Example 90, (2R or S)-4,4-difluoro-N-{4-[5-fluoro-7-(2-methoxyethoxy)-3-(pyridin-2-yl)-1H-pyrrolo[3,2-b]pyridin-2-yl]pyridin-2-yl}-2-(4-fluorophenyl)butanamide] showed a pIC50 (full-length human CSNK1D) of 8.60, a pIC50 [1] of 8.61 and a pIC50 [2] of 8.61.

Molecule `COCCOc1cc(F)nc2c(-c3ccccn3)c(-c3ccnc(NC(=O)C(CC(F)F)c4ccc(F)cc4)c3)[nH]c12` (single isomer, unassigned) [Example 91, (2R or S)-4,4-difluoro-N-{4-[5-fluoro-7-(2-methoxyethoxy)-3-(pyridin-2-yl)-1H-pyrrolo[3,2-b]pyridin-2-yl]pyridin-2-yl}-2-(4-fluorophenyl)butanamide] has a pIC50 (full-length human CSNK1D) of 7.63, a pIC50 [1] of 8.02 and a pIC50 [2] of 8.02.

Work on `O=C(Nc1cc(-c2[nH]c3nc(OC(F)F)cnc3c2-c2ccccn2)ccn1)C(CC(F)F)c1ccc(F)cc1` (single isomer, unassigned) [Example 106, N-{4-[3-(difluoromethoxy)-7-(pyridin-2-yl)-5H-pyrrolo[2,3-b]pyrazin-6-yl]pyridin-2-yl}-4,4-difluoro-2-(4-fluorophenyl)butanamide] yielded a pIC50 (full-length human CSNK1D) of 8.21, a pIC50 [1] of 8.36 and a pIC50 [2] of 8.36.

In the case of `O=C(Nc1cc(-c2[nH]c3nc(OC(F)F)cnc3c2-c2ccccn2)ccn1)C(CC(F)F)c1ccc(F)cc1` (single isomer, unassigned) [Example 107, N-{4-[3-(difluoromethoxy)-7-(pyridin-2-yl)-5H-pyrrolo[2,3-b]pyrazin-6-yl]pyridin-2-yl}-4,4-difluoro-2-(4-fluorophenyl)butanamide], the pIC50 (full-length human CSNK1D) was 6.93, the pIC50 [1] was 7.19 and the pIC50 [2] was 7.19.

`Cc1cc(F)nc2c(-c3ccccn3)c(-c3ccnc(NC(=O)C(CC(F)F)c4ccc(F)cc4)c3)[nH]c12` (single isomer, unassigned; (+)) [Example 37, (+)-4,4-difluoro-N-{4-[5-fluoro-7-methyl-3-(pyridin-2-yl)-1H-pyrrolo[3,2-b]pyridin-2-yl]pyridin-2-yl}-2-(4-fluorophenyl)butanamide] showed a pIC50 (full-length human CSNK1D) of 8.08, a pIC50 [1] of 8.40 and a pIC50 [2] of 8.40.

With `O=C(Nc1cc(-c2[nH]c3cc(Cl)cnc3c2-c2ccccn2)ccn1)C(CC(F)F)c1ccc(F)cc1` (stereo not drawn) [Example 87, N-{4-[6-chloro-3-(pyridin-2-yl)-1H-pyrrolo[3,2-b]pyridin-2-yl]pyridin-2-yl}-4,4-difluoro-2-(4-fluorophenyl)butanamide] the pIC50 (full-length human CSNK1D) was 7.97, the pIC50 [1] was 8.22 and the pIC50 [2] was 8.22.

Work on `O=C(Nc1cc(-c2[nH]c3ccc(F)nc3c2-c2ccc(F)cn2)ccn1)C(CC(F)F)c1ccc(F)cc1` (stereo not drawn) [Example 108, 4,4-difluoro-N-{4-[5-fluoro-3-(5-fluoropyridin-2-yl)-1H-pyrrolo[3,2-b]pyridin-2-yl]pyridin-2-yl}-2-(4-fluorophenyl)butanamide] yielded a pIC50 (full-length human CSNK1D) of 8.23, a pIC50 [1] of 8.34 and a pIC50 [2] of 8.34.
